Measurements reported in patent US9326973B2, “Hepatitis C virus inhibitors” (priority 2012, dated 2016).
Where two headings read alike, the source gives them in different places.

Tested on: HCV replicon, genotype-1a variant with glutamine 30 changed to glutamate in the NS5A protein
Test: microbe, parasite or virus in culture
Format: cell-based, HCV genotype 1a
Conditions: for Fold-Synergistic 1a (Q30E): HCV replicon genotype 1a Q30E (Q→E) variant, test compound titrated with an NS5A-targeting compound (BMS-790052 fixed at 200 nM), ranking of synergist activity; for EC50: Hepatitis C virus
Outline: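 Synergy was assessed by combining several fixed amounts of an NS5A-targeting compound with a titration of the second compound of interest.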

Structure (SMILES) | Fold-Synergistic 1a (Q30E) | further results
COC(C)(C)C(=O)N[C@H](c1nc(-c2ccc(-c3ccc(-c4c[nH]c([C@@H](NC(=O)C(C)(C)OC)C(C)C)n4)cn3)cc2)c[nH]1)C(C)C [Compound N-102] | >100 fold | –
COC(=O)N[C@H](C(=O)N[C@@H](CC(C)C)c1nc(-c2ccc(-c3ccc(-c4c[nH]c([C@H](CC(C)C)NC(=O)[C@@H](NC(=O)OC)C(C)C)n4)cc3)cc2)c[nH]1)C(C)C [Compound N-30] | <10 fold | –
CC(C)(C)[C@H](NC(=O)C1(CO)CCCCO1)c1nc(-c2ccc(-c3ccc(-c4c[nH]c([C@@H](NC(=O)C5(CO)CCCCO5)C(C)(C)C)n4)cc3)cc2)c[nH]1 (stereo partly drawn) [Compound P-182] | >100 fold | –
O=C(C1CCCC1)N1CCC[C@H]1c1ncc(-c2ccc(-c3ccc(-c4cnc([C@@H]5CCCN5C(=O)C5CCCC5)[nH]4)cc3)cc2)[nH]1 [Compound S-164] | <10 fold | –
C[C@H](C(=O)OC(C)(C)C)[C@@H](C)C(=O)N[C@H](c1nc(-c2ccc(-c3ccc(-c4c[nH]c([C@@H](NC(=O)[C@H](C)[C@H](C)C(=O)OC(C)(C)C)C(C)(C)C)n4)cc3)cc2)c[nH]1)C(C)(C)C [Compound S-292] | >100 fold | –
CCC(CC)(NC(=O)OC(C)(C)C)C(=O)N[C@H](c1nc(-c2ccc(-c3ccc(-c4c[nH]c([C@@H](NC(=O)C(CC)(CC)NC(=O)OC(C)(C)C)C(C)(C)C)n4)cc3)cc2)c[nH]1)C(C)(C)C [Compound L-24] | >100 fold | –
O=C(N1CCC[C@H]1c1ncc(-c2ccc(-c3ccc(-c4cnc([C@@H]5CCCN5C(=O)C5(c6ccccc6F)CCCC5)[nH]4)cc3)cc2)[nH]1)C1(c2ccccc2F)CCCC1 [Compound S-155] | <10 fold | –
CC(C)[C@H](NC(=O)C(C)(C)F)c1nc(-c2ccc(-c3ccc(-c4c[nH]c([C@@H](NC(=O)C(C)(C)F)C(C)C)n4)c(F)c3)cc2)c[nH]1 [Compound N-90] | >100 fold | –
CC(C)(C)[C@H](NC(=O)C1(NCC(F)(F)F)CC1)c1nc(-c2ccc(-c3ccc(-c4c[nH]c([C@@H](NC(=O)C5(NCC(F)(F)F)CC5)C(C)(C)C)n4)cc3)cc2)c[nH]1 [Compound L-96] | >100 fold | –
O=C(c1ccnc2ccccc12)N1CCC[C@H]1c1ncc(-c2ccc(-c3ccc(-c4cnc([C@@H]5CCCN5C(=O)c5ccnc6ccccc56)[nH]4)cc3)cc2)[nH]1 [Compound S-125] | <10 fold | –
CC(C)(C)[C@H](NC(=O)[C@@H]1CCCN1CC(F)(F)F)c1nc(-c2ccc(-c3ccc(-c4c[nH]c([C@@H](NC(=O)[C@@H]5CCCN5CC(F)(F)F)C(C)(C)C)n4)cc3)cc2)c[nH]1 [Compound L-52] | >100 fold | –
CN(C(=O)OC(C)(C)C)C1(C(=O)N[C@H](c2nc(-c3ccc(-c4ccc(-c5c[nH]c([C@@H](NC(=O)C6(N(C)C(=O)OC(C)(C)C)CCC6)C(C)(C)C)n5)cc4)cc3)c[nH]2)C(C)(C)C)CCC1 [Compound L-14] | >100 fold | –
CC1([C@H](NC(=O)[C@@]2(C)CCCCO2)c2nc(-c3ccc(-c4ccc(-c5c[nH]c([C@@H](NC(=O)[C@@]6(C)CCCCO6)C6(C)CC6)n5)cc4)cc3)c[nH]2)CC1 [Compound P-187] | >100 fold | –
CC1([C@H](NC(=O)C2CC(=O)C2)c2nc(-c3ccc(-c4ccc(-c5c[nH]c([C@@H](NC(=O)C6CC(=O)C6)C6(C)CC6)n5)cc4)cc3)c[nH]2)CC1 [Compound W-174] | >100 fold | –
CCC(C)[C@H](NC(=O)[C@@H](NC(=O)OC)C(C)C)c1nc(-c2ccc(-c3ccc(-c4c[nH]c([C@@H](NC(=O)[C@@H](NC(=O)OC)C(C)C)C(C)CC)n4)cc3)cc2)c[nH]1 (stereo partly drawn) [Compound N-33] | >10 fold | –
CC(C)(C)[C@H](NC(=O)Cc1ccccc1OC(F)(F)F)c1nc(-c2ccc(-c3ccc(-c4c[nH]c([C@@H](NC(=O)Cc5ccccc5OC(F)(F)F)C(C)(C)C)n4)cc3)cc2)c[nH]1 [Compound Y-73] | >100 fold | –
O=C(Cc1c[nH]c2ccccc12)N1CCC[C@H]1c1ncc(-c2ccc(-c3ccc(-c4cnc([C@@H]5CCCN5C(=O)Cc5c[nH]c6ccccc56)[nH]4)cc3)cc2)[nH]1 [Compound S-148] | >10 fold | –
CC(C)[C@H](NC(=O)C(=O)N1CCC(F)(F)CC1)c1nc(-c2ccc(-c3ccc(-c4c[nH]c([C@@H](NC(=O)C(=O)N5CCC(F)(F)CC5)C(C)C)n4)cc3)cc2)c[nH]1 [Compound W-51] | >100 fold | –
CCCC(C)C(=O)N1CCC[C@H]1c1ncc(-c2ccc(-c3ccc(-c4cnc([C@@H]5CCCN5C(=O)C(C)CCC)[nH]4)cc3)cc2)[nH]1 (stereo partly drawn) [Compound S-170] | <10 fold | –
CC(C)[C@H](NC(=O)C(C)(C)F)c1nc(-c2ccc(-c3ccc(-c4c[nH]c([C@@H](NC(=O)C(C)(C)F)C(C)C)n4)cc3F)cc2)c[nH]1 [Compound N-97] | >100 fold | –

Structure (SMILES) | Fold-Synergistic 1a (Q30E) | further results
CC(C)(C)[C@H](NC(=O)C1CCC(=C(F)F)CC1)c1nc(-c2ccc(-c3ccc(-c4c[nH]c([C@@H](NC(=O)C5CCC(=C(F)F)CC5)C(C)(C)C)n4)cc3)cc2)c[nH]1 (stereo partly drawn) [Compound N-121] | >100 fold | –
Cc1c2c(nn1C)CCC(C(=O)N[C@H](c1nc(-c3ccc(-c4ccc(-c5c[nH]c([C@@H](NC(=O)C6CCc7nn(C)c(C)c7C6)C(C)(C)C)n5)cc4)cc3)c[nH]1)C(C)(C)C)C2 (stereo partly drawn) [Compound S-278] | >100 fold | –
CC(C)CC(=O)N[C@@H](Cc1ccccc1)c1nc(-c2ccc(-c3ccc(-c4c[nH]c([C@H](Cc5ccccc5)NC(=O)CC(C)C)n4)cc3)cc2)c[nH]1 [Compound P-6] | >10 fold | –
CCCCCC(=O)N1CCC[C@H]1c1ncc(-c2ccc(-c3ccc(-c4cnc([C@@H]5CCCN5C(=O)CCCCC)[nH]4)cc3)cc2)[nH]1 [Compound S-181] | >10 fold | –
CCC(F)(F)C(=O)N[C@H](c1nc(-c2ccc(-c3ccc(-c4c[nH]c([C@@H](NC(=O)C(F)(F)CC)C(C)(C)C)n4)cc3)cc2)c[nH]1)C(C)(C)C [Compound S-284] | >100 fold | –
CC1(C)OC(=O)CC1C(=O)N[C@H](c1nc(-c2ccc(-c3ccc(-c4c[nH]c([C@@H](NC(=O)C5CC(=O)OC5(C)C)C(C)(C)C)n4)cc3)cc2)c[nH]1)C(C)(C)C (stereo partly drawn) [Compound S-279] | >10 fold | –
CC[C@H](NC(=O)[C@@H](NC(=O)OC)C(C)C)c1nc(-c2ccc(-c3ccc(-c4c[nH]c([C@H](CC)NC(=O)[C@@H](NC(=O)OC)C(C)C)n4)cc3)cc2)c[nH]1 [Compound N-41] | >10 fold | –
O=C(Cc1ccc2ccccc2c1)N1CCC[C@H]1c1ncc(-c2ccc(-c3ccc(-c4cnc([C@@H]5CCCN5C(=O)Cc5ccc6ccccc6c5)[nH]4)cc3)cc2)[nH]1 [Compound S-145] | >10 fold | –
CC[C@H](NC(=O)CC(C)C)c1nc(-c2ccc(-c3ccc(-c4c[nH]c([C@H](CC)NC(=O)CC(C)C)n4)cc3)cc2)c[nH]1 [Compound N-42] | >100 fold | –
CC(C)(C)[C@H](Nc1nc(C(F)(F)F)c(Cl)s1)c1nc(-c2ccc(-c3ccc(-c4c[nH]c([C@@H](Nc5nc(C(F)(F)F)c(Cl)s5)C(C)(C)C)n4)cc3)cc2)c[nH]1 [Compound W-180] | <10 fold | –
CC1(C)CC(C(=O)N[C@H](c2nc(-c3ccc(-c4ccc(-c5c[nH]c([C@@H](NC(=O)C6CCOC(C)(C)C6)C(C)(C)C)n5)cc4)cc3)c[nH]2)C(C)(C)C)CCO1 (stereo partly drawn) [Compound W-122] | >100 fold | –
Cc1cc(-c2ccc(-c3c[nH]c([C@@H](NC(=O)C4(C)CCCCC4)C(C)C)n3)cc2)ccc1-c1c[nH]c([C@@H](NC(=O)C2(C)CCCCC2)C(C)C)n1 [Compound N-79] | >100 fold | –
O=C(Cc1ccc(Oc2ccccc2)cc1)N1CCC[C@H]1c1ncc(-c2ccc(-c3ccc(-c4cnc([C@@H]5CCCN5C(=O)Cc5ccc(Oc6ccccc6)cc5)[nH]4)cc3)cc2)[nH]1 [Compound S-154] | >10 fold | –
CN(C)C(=O)C(=O)N[C@H](c1nc(-c2ccc(-c3ccc(-c4c[nH]c([C@@H](NC(=O)C(=O)N(C)C)C(C)(C)C)n4)cc3)cc2)c[nH]1)C(C)(C)C [Compound W-10] | >100 fold | –
CC1([C@H](NC(=O)[C@@]2(C)CCC(F)(F)CO2)c2nc(-c3ccc(-c4ccc(-c5c[nH]c([C@@H](NC(=O)[C@@]6(C)CCC(F)(F)CO6)C6(C)CC6)n5)cc4)cc3)c[nH]2)CC1 [Compound Y-81] | >100 fold | –
CC(C)(C)OC(=O)N1CC(C)(C(=O)N[C@H](c2nc(-c3ccc(-c4ccc(-c5c[nH]c([C@@H](NC(=O)C6(C)CN(C(=O)OC(C)(C)C)C6)C(C)(C)C)n5)cc4)cc3)c[nH]2)C(C)(C)C)C1 [Compound L-63] | >100 fold | –
CC1([C@H](NC(=O)[C@@]2(C)CC(F)(F)CO2)c2nc(-c3ccc(-c4ccc(-c5c[nH]c([C@@H](NC(=O)[C@@]6(C)CC(F)(F)CO6)C6(C)CC6)n5)cc4)cc3)c[nH]2)CC1 [Compound Y-83] | >100 fold | –
CC(C)CC(=O)N[C@H](c1ncc(-c2ccc(-c3ccc(-c4cnc([C@@H](NC(=O)CC(C)C)C(C)C)[nH]4)cc3)cc2)[nH]1)C(C)C [Compound P-55] | – | EC50 (genotype 1a Q30E replicon, BMS-790052 fixed at 200 nM, read-out: EC50 of P-55 in the presence of a fixed amount of BMS-790052): ~2 nM; EC50 (genotype 1a Q30E replicon, compound alone, read-out: EC50, titrated singly): > 200 nM; synergistic inhibitory effect with the combination (genotype 1a Q30E replicon, P-55 titrated with 200 nM BMS-790052): > 100 fold
COC(=O)N[C@H](C(=O)NC(C)(C)c1nc(-c2ccc(-c3ccc(-c4c[nH]c(C(C)(C)NC(=O)[C@@H](NC(=O)OC)C(C)C)n4)cc3)cc2)c[nH]1)C(C)C [Compound N-25] | <10 fold | –
CC(C)[C@H](NC(=O)C(=O)N1C[C@@H](C)O[C@@H](C)C1)c1nc(-c2ccc(-c3ccc(-c4c[nH]c([C@@H](NC(=O)C(=O)N5C[C@@H](C)O[C@@H](C)C5)C(C)C)n4)cc3)cc2)c[nH]1 [Compound W-54] | >100 fold | –
